For data set [1], the system named is malondialdehyde (MDA) formation. The experiment in a line: Inhibition of lipid peroxidation: MDA formation in tissues of LPS-induced mice. The class given is in vivo, mouse. To be noted: LPS 250 μg/kg i.p. 3 days, mean ± SD; for MDA formation in pancreas, preventative treatment: compound 25 μmol/kg i.p. for 3 days and 120 min before sacrifice; for MDA formation in pancreas, curative treatment: compound 25 μmol/kg i.p. only for the last 2 days. On the procedure: (§1) According to the results from previous in vitro([18]) efficacy and safety studies and in vivo pharmacokinetics, the efficacy of the FA and the more LAT1-specific derivative, D1 against oxidative stress and lipid peroxidation was evaluated by determining malondialdehyde (MDA) formation in mouse tissues. To induce oxidative stress, mice were administered 250 μg/kg of lipopolysaccharide (LPS) i.p. once per day for 3 consecutive days. On the 4th day, mice were anesthetized using a mixture of ketamine (140 mg/kg) and xylazine (8 mg/kg) and sacrificed by decapitation. Animals were divided into one of four treatment groups (n = 4 per group); (1) LPS only, (2) LPS with the FA or D1 (25 μmol/kg; i.p.) for 3 days and 120 min before the sacrifice on the 4th day (preventative efficacy), (3) LPS with the FA or D1 (25 μmol/kg; i.p.) only for the last 2 days (curative efficacy), or (4) control mice treated with 0.9% NaCl solution i.p. once per day for 3 days. After decapitation, the kidney, liver, and pancreas were rapidly collected, snap-frozen on dry ice, and stored at −80 °C until analyzed.
Pieces of snap-frozen tissues were homogenized 1:10 (w/v) in 50 mM TBS (pH 7.4) containing 0.01% butylated hydroxytoluene by sonicating samples in pulses for 5 s with a SoniPrep 150 Plus disintegrator (MSE Ltd., London, UK). The homogenates were then centrifuged at 10 000 × g for 20 min at 4 °C, and the supernatants were collected for the assays.
MDA was quantified by the derivatization reaction with thiobarbituric acid (TBA) (Sigma, St. Louis, MO, USA), with a previously described protocol.[30] The analysis was carried out with an Agilent 1290 Infinity II LC System (Agilent Technologies, Santa Clara, CA, USA) combined with an Agilent 1290 Infinity II Diode Array Detector. The results were calculated as μmol of formed MDA-TBA2 per mg of tissue.

In data set [2] the test system is prostaglandin E2 (PGE2) production. The experiment in a line: Inhibition of prostaglandin E2 production in tissues of LPS-induced mice. It is filed as in vivo, mouse. Conditions: LPS 250 μg/kg i.p., mean ± SD; for PGE2 in liver, preventative treatment / PGE2 in pancreas, preventative treatment: compound 25 μmol/kg i.p. 3 days and 120 min before sacrifice; for PGE2 in liver, curative treatment / PGE2 in pancreas, curative treatment: compound 25 μmol/kg i.p. last 2 days. On the procedure: as §1
The ability of FA and D1 to inhibit prostaglandin E2 (PGE2) production in the mouse kidney, liver, and pancreas was evaluated after the exposure of mice to LPS. The tissue homogenate supernatants (n = 4), prepared as described above in MDA sample preparation (Chapter 2.7), were further diluted 1:5 with 80% MeOH (v/v) solution containing the deuterated internal standard, PGE2-d4 (Cayman Chemical Company, Ann Arbor, MI, USA). To improve the extraction of prostaglandins and precipitation of proteins, the diluted samples were incubated overnight in a freezer (−80 °C). Subsequently, samples were centrifuged at 16 000 × g for 20 min at 4 °C and the supernatants were collected for the LC–MS/MS analysis.
The LC–MS/MS analysis was carried out with a previously described method[30] using an Agilent 1290 Infinity LC System (Agilent Technologies, Waldbronn, Germany) and an Agilent 6495 triple quadrupole mass spectrometer with a heated electrospray ionization source (Agilent Technologies, Palo Alto, CA, USA). Data were collected using Agilent MassHunter Workstation software (version B.06.00) and processed with the Quantitative Analysis (B.07.00) software. The results were calculated as nmol of PGE2 per mg of tissue.

The next data set has as its system human plasma. The experiment in a line: Coagulation parameters (PT, INR, APTT, TT) in human plasma. Here is the method:
To assess the safety of the LAT1 derivatives in the human blood circulation system, the basic coagulation parameters, prothrombin time (PT), activated partial thromboplastin time (APTT), thrombin time (TT), and international normalized ratio (INR) were determined from human plasma in the presence of FA, D1, and D2. The parameters were studied using a coagulometer (CoagChrom-3003 Bio-Ksel, Grudziądz, Poland), with the previously described methods.[25],[31] The following reagents were used in the basic coagulation studies: Bio-Ksel System APTT reagent and calcium chloride, Bio-Ksel PT plus reagent (thromboplastin and solvent), and thrombin (3.0 UNIH/mL), (Bio-Ksel, Grudziądz, Poland). The experiments were performed using citrated human plasma. Control samples consisting of drug solvents [distilled water and methanol mixture (1:2 v/v)] were conducted. The methods were validated using normal plasma (Bio-Ksel, Grudziądz, Poland). Coefficients of variability (CV) were counted (n = 5): CV(PT) = 5.34%, CV(APTT) = 2.61%, CV(TT) = 1.82%. Following reference values for each test were applied: PT: 9.7–14.6 s; APTT: 26.7–40.0 s; and TT: 14.0–18.0 s for 3.0 UNIH/mL of thrombin.

The conditions of data set [3]: previous in vitro bioconversion studies; cited from earlier work.
Another data set deals with LAT1. Also on record: method as in PMID 31814871, PMID 35011270. To be noted: previous uptake mechanism studies; cited from earlier work.
Data set [4] concerns human umbilical vein endothelial cells (HUVECs). Briefly: HUVEC viability, WST-1 assay. The class given is cell-based. Conditions: WST-1, 24 h. On the procedure: As a third in vitro toxicity study in the human blood circulation system, the effects of FA, D1, and D2 on the viability of human umbilical vein endothelial cells (HUVECs; RRID CVCL_2959; Lonza, Italy; Cat. no. CC-2517) were determined using the WST-1 assay (Takara, Takara Bio Europe, Europe, Saint-Germain-en-Laye, France), according to the previously published protocol.[32] Briefly, the cells were cultured according to the manufacturer’s guidelines with the following ingredients: EGM-2-medium + bullet kit (Lonza, Clonetics, Italy), accutase (Sigma-Aldrich, Germany), and HEPES-buffered saline solution (Lonza, Basel, Switzerland). For the assay, the cells were seeded at the density of 7 500 HUVECs per well on 96-well plates and cultured for 24 h to obtain 70% confluency. Subsequently, the cells were treated with studied compounds in multiplicate (n = 6–8) at the concentration of 0.1–100 μM in the growth medium for 24 h (37 °C, 5% CO2). Cells with untreated growth medium represented 100% viability, whereas cells treated with medium containing 0.5% (v/v) methanol served as a negative control for drug solvent. After treating cells for 24 h, medium was removed, the cells were washed with the culture medium (100 μl/well), and 100 μL of WST-1 reagent dissolved in culture medium was added into each well. The plates were incubated at 37 °C with 5% CO2 for 2 h, after which absorbance values were measured at the 450 nm wavelength using a microplate reader (iMARK, Bio-Rad). Additionally, the effects of treatments on HUVEC morphology were examined microscopically using a phase-contrast Opta-Tech inverted microscope equipped with OptaView 7 software (Opta-Tech, Warsaw, Poland) for image analysis.

`COc1cc(C=CC(=O)NCc2cccc(CC(N)C(=O)O)c2)ccc1O` (centres unmarked) [derivative 1]: in data set [1], the “MDA formation in pancreas, preventative treatment” value turned out to be 0.46 ± 0.47 µmol/mg and the “MDA formation in pancreas, curative treatment” value came to 0.44 ± 0.39 µmol/mg. For the same compound, in data set [2], the “PGE2 in liver, preventative treatment” value was 15.95 ± 9.61 nmol/mg; the “PGE2 in pancreas, preventative treatment” value is recorded as 24.51 ± 15.99 nmol/mg; the “PGE2 in liver, curative treatment” value is given as 48.55 ± 14.50 nmol/mg; the “PGE2 in pancreas, curative treatment” value turned out to be 23.51 ± 8.81 nmol/mg. Besides, in the data set on human plasma (100 μM), the “effect on APTT” value was “prolonged the APTT”. For the same compound, the “release of FA in the mouse liver” value in data set [3] is listed as “neither D1 nor D2 released FA”.
As for `COc1cc(/C=C/C(=O)Nc2cccc(C[C@H](N)C(=O)O)c2)ccc1O` [derivative 2], the “release of FA in the mouse liver” value in data set [3] is recorded as “neither D1 nor D2 released FA”. Further, in the data set on LAT1, the “affinity toward LAT1 compared to the secondary transport mechanism” value is “over 20 times” and the “overall uptake speed compared to D1” value is given as 1.5 times.
On to `COc1cc(C=CC(=O)O)ccc1O` [ferulic acid, 4-hydroxy-3-methoxycinnamic acid], for which, in data set [1], the “MDA formation in pancreas, preventative treatment” value amounted to 0.94 ± 0.41 µmol/mg and the “MDA formation in pancreas, curative treatment” value came out at 1.04 ± 0.29 µmol/mg. Moreover, in data set [2], the “PGE2 in liver, preventative treatment” value is given as 25.41 ± 6.35 nmol/mg; the “PGE2 in pancreas, preventative treatment” value is given as 57.56 ± 51.63 nmol/mg; the “PGE2 in liver, curative treatment” value was 37.07 ± 10.02 nmol/mg; the “PGE2 in pancreas, curative treatment” value amounted to 54.68 ± 22.02 nmol/mg. Also, the “effect on INR” value with human plasma is “increased INR”. In addition, the “prothrombin time (PT)” value in the data set on human plasma (100 μM, control 13.2 ± 1.3 s) was 15.5 ± 0.4 s. Also, the “effect on HUVEC viability at 1–50 μM” value in data set [4] was “no statistically significant effect”.

Source of the values: paper PMC9644403, “L-type Amino Acid Transporter 1 Utilizing Ferulic Acid Derivatives Show Increased Drug Delivery in the Mouse Pancreas Along with Decreased Lipid Peroxidation and Prostaglandin Production” (Molecular Pharmaceutics, 2022).
